Key:
Assay in all cases: relative viability (nuclei count vs DMSO), 5 days (fraction); higher = more cells survive
[1] = compound: C1CCC(CC1)N(CCNCCC2=C3C(=C(C=C2)O)NC(=O)CO3)C(=O)CCNCCC4=CC(=C(C=C4)Cl)Cl [AZ505] + CS(=O)(=O)N1CCN(Cc2cc3nc(-c4cccc5[nH]ncc45)nc(N4CCOCC4)c3s2)CC1 [Pictilisib] (partner 1 µM)
Summary of the method: (§1)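 For relative viability, nuclei counts in treated wells were divided by those in vehicle wells. Lung cancer cell lines had been pin-tool dosed in 1536-well plates the day after seeding and cultured for 5 days, then fixed and stained in one step (final 0.05% Triton X-100, 1% formaldehyde, 1 ug/ml Hoechst) and imaged at 4×. Doses were one drug alone or a fixed anchor-drug dose plus five library-drug doses (not always all listed) in √10 steps, and values are duplicate-plate medians.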

[2] = compound: Cn1c(=O)n(-c2ccc(C(C)(C)C#N)cc2)c2c3cc(-c4cnc5ccccc5c4)ccc3ncc21 [Dactolisib] + N=C(N)NC(=N)NCCc1ccccc1 [Phenformin] (partner 250 µM)
Summary of the method: as §1

[3] = compound: C1CCC(CC1)N(CCNCCC2=C3C(=C(C=C2)O)NC(=O)CO3)C(=O)CCNCCC4=CC(=C(C=C4)Cl)Cl [AZ505] + NC(=O)Nc1cc(-c2cccc(F)c2)sc1C(=O)N[C@H]1CCCNC1 [AZD7762] (partner 0.2 µM)
Summary of the method: as §1

[4] = compound: C1CCC(CC1)N(CCNCCC2=C3C(=C(C=C2)O)NC(=O)CO3)C(=O)CCNCCC4=CC(=C(C=C4)Cl)Cl [AZ505] + CC(=O)Nc1cccc(-n2c(=O)n(C3CC3)c(=O)c3c(Nc4ccc(I)cc4F)n(C)c(=O)c(C)c32)c1 [Trametinib] (partner 0.02 µM)
Summary of the method: as §1

Row | Cell Line | relative viability ([1]; first compound 0.08 µM) | relative viability ([1]; first compound 0.253 µM) | relative viability ([1]; first compound 0.8 µM) | relative viability ([1]; first compound 2.53 µM) | relative viability ([1]; first compound 8 µM) | relative viability ([2]; first compound 0.002 µM) | relative viability ([2]; first compound 0.006325 µM) | relative viability ([2]; first compound 0.02 µM) | relative viability ([2]; first compound 0.06325 µM) | relative viability ([2]; first compound 0.2 µM) | relative viability ([3]; first compound 0.08 µM) | relative viability ([3]; first compound 0.253 µM) | relative viability ([3]; first compound 0.8 µM) | relative viability ([3]; first compound 2.53 µM) | relative viability ([3]; first compound 8 µM) | relative viability ([4]; first compound 0.08 µM) | relative viability ([4]; first compound 0.253 µM) | relative viability ([4]; first compound 0.8 µM) | relative viability ([4]; first compound 2.53 µM) | relative viability ([4]; first compound 8 µM)
1 | NCI-H1792 | 0.301 | 0.262 | 0.288 | 0.25 | 0.323 | 0.249 | 0.172 | 0.262 | 0.101 | 0.0814 | 0.627 | 0.247 | 0.544 | 0.642 | 0.833 | 0.426 | 0.426 | 0.482 | 0.422 | 0.435
2 | ChaGo-K-1 | 0.824 | 0.58 | 0.691 | 0.819 | 0.901 | 0.457 | 0.457 | 0.464 | 0.374 | 0.444 | 0.73 | 0.836 | 0.766 | 0.888 | 0.886 | 0.838 | 0.918 | 0.871 | 0.846 | 0.91
3 | LOU-NH91 | 0.493 | 0.512 | 0.537 | 0.452 | 0.531 | 0.625 | 0.731 | 0.642 | 0.437 | 0.447 | 0.734 | 0.737 | 0.744 | 0.775 | 0.781 | 0.772 | 0.77 | 0.76 | 0.798 | 0.765
4 | NCI-H2405 | 0.256 | 0.21 | 0.278 | 0.259 | 0.254 | 0.403 | 0.379 | 0.374 | 0.269 | 0.256 | 0.45 | – | 0.605 | 0.605 | 0.665 | 0.487 | – | 0.615 | 0.586 | 0.603
5 | LCLC-97TM1 | 0.233 | 0.171 | 0.273 | 0.144 | 0.15 | 0.452 | 0.444 | 0.42 | 0.317 | 0.179 | 0.427 | 0.111 | 0.301 | 0.317 | 0.354 | 0.208 | 0.156 | 0.166 | – | 0.191
6 | NCI-H596 | 0.362 | 0.382 | 0.355 | 0.394 | 0.445 | 0.738 | 0.767 | 0.627 | 0.468 | 0.372 | 1.18 | – | 1.02 | 1.04 | 0.916 | 0.721 | – | 0.593 | 0.648 | 0.674
7 | NCI-H727 | 0.327 | 0.313 | 0.468 | 0.274 | 0.47 | 0.653 | 0.588 | 0.528 | 0.359 | 0.309 | 0.661 | 0.418 | 0.582 | 0.512 | 0.76 | 0.418 | 0.411 | 0.365 | 0.391 | 0.358
8 | H3255 | 0.395 | 0.39 | 0.48 | 0.424 | 0.598 | 0.386 | 0.354 | 0.388 | 0.328 | 0.348 | 0.737 | 0.883 | 0.906 | 0.942 | 0.957 | – | 0.604 | 0.543 | 0.578 | 0.611
9 | NCI-H1437 | 0.46 | 0.424 | 0.599 | 0.415 | 0.404 | 0.27 | 0.341 | 0.323 | 0.296 | 0.289 | 1.07 | 1.17 | 1.08 | 1.14 | 1.17 | 0.504 | 0.472 | 0.473 | 0.662 | 0.568
10 | LU99A | 0.318 | 0.327 | 0.302 | 0.354 | 0.315 | 0.871 | 0.761 | 0.682 | 0.443 | 0.258 | 0.341 | 0.54 | 0.358 | – | 0.361 | 0.518 | 0.51 | 0.531 | – | 0.498
11 | HCC-827 | 0.944 | 0.963 | 1.1 | 0.999 | 0.953 | 0.394 | 0.392 | 0.396 | 0.382 | 0.393 | 0.25 | 0.163 | 0.49 | 0.204 | 0.263 | 0.548 | 0.577 | 0.501 | 0.501 | 0.533
12 | LK-2 | 0.562 | 0.706 | 0.59 | 0.597 | 0.604 | 0.297 | 0.324 | 0.248 | 0.146 | 0.114 | 0.512 | 0.264 | 0.597 | 0.342 | 0.403 | 0.661 | 0.687 | 0.718 | 0.865 | 0.865
13 | HCC-366 | 0.136 | 0.186 | 0.123 | 0.128 | 0.18 | 0.602 | 0.625 | 0.587 | 0.397 | 0.151 | 0.357 | 0.215 | 0.281 | 0.151 | 0.247 | 0.288 | 0.331 | 0.281 | 0.289 | 0.332
14 | BEN | 0.498 | 0.611 | 0.565 | 0.599 | 0.622 | 0.231 | 0.263 | 0.245 | 0.248 | 0.237 | 0.594 | 0.433 | 0.621 | 0.758 | 0.759 | 0.971 | 1.08 | 0.972 | 1 | 1.08
15 | NCI-H23 | 0.402 | – | 0.582 | 0.416 | 0.478 | 0.807 | 0.795 | 0.736 | 0.359 | 0.316 | 0.228 | 0.146 | 0.255 | 0.268 | 0.157 | 0.246 | 0.414 | 0.427 | 0.442 | 0.347
16 | NCI-H1395 | 0.704 | 0.563 | 0.512 | 0.635 | 0.698 | 0.445 | 0.485 | 0.453 | 0.377 | 0.373 | 0.407 | – | 0.413 | 0.386 | 0.382 | 1.06 | – | 0.991 | 1.01 | 1.14

From the supplement of paper PMC10307832
